Data: patent publication US20030092636A1, “Treatment and prevention of paresthesia comprising co-therapy with anticonvulsant derivatives and potassium” (priority 2001, published 2003)
Where two headings read alike, the source gives them in different places.

Columns and labels:
[1] = cited from earlier work
seizures [2] = conditions: several rodent models of epilepsy; cited from earlier work
[3] = tested on: simple and complex partial seizures and secondarily generalized seizures; conditions: adjunctive therapy or monotherapy; human epilepsy; cited from earlier work
seizures [4] = conditions: animal model of kindled epilepsy; cited from earlier work
paresthesias [5] = assay: Single-patient case reports: potassium chloride given to patients with paresthesias while taking topiramate; format: in vivo, human; conditions: potassium chloride 20 mEq/day
Protocol: The patient was a person who had cluster headaches. The patient was taking topiramate at 150 mg/day. They complained of paresthesias. The patient was given potassium chloride at 20 mEq/day.
The patient was a person who had migraine headaches and who was taking topiramate at 150 mg/day. They complained of paresthesias and was given potassium chloride at 20 mEq/day.
The patient was a person who had migraine headaches and was taking topiramate at 200 mg/day. They complained of paresthesias and was given potassium chloride at 20 mEq/day.
The patient was a person who had migraine headaches and was taking topiramate at 125 mg/day. They complained of paresthesias and was given potassium chloride at 20 mEq/day.
The patient was a person who had migraine headaches and was taking topiramate at 50 mg/day. They complained of paresthesias and was given potassium chloride at 20 mEq/day.

[6] = infusion into an epidural catheter; cited from earlier work
paresthesia = conditions: intravenous potassium chloride in combination with spirocolactone; patient with hypokalemia and painful leg paresthesia; cited from earlier work
paresthesias [7] = assay: Anecdotal case studies: potassium supplementation in patients with persistent paresthesias; format: in vivo, human

Row | SMILES | adverse event or side effect ([1]; patients treated for epilepsy, migraine headaches, bipolar disorder) | severity of the paresthesia ([1]; patients treated with topiramate) | seizure block (seizures [2]) | efficacy in treating seizures [3] | seizure block (seizures [4]) | paresthesias outcome (paresthesias [5]; Example 3: person, cluster headaches, topiramate 150 mg/day, within 9 days) | paresthesias outcome (paresthesias [5]; Example 4: person, migraine, topiramate 150 mg/day, after about one month) | paresthesias outcome (paresthesias [5]; Example 5: person, migraine, topiramate 200 mg/day, after about two months) | paresthesias outcome (paresthesias [5]; Example 6: person, migraine, topiramate 125 mg/day, after about one month) | paresthesias outcome (paresthesias [5]; Example 7: person, migraine, topiramate 50 mg/day, after one month) | effect of inadvertent epidural infusion [6] | outcome of treatment (paresthesia) | effect on persistent paresthesias (paresthesias [7]; patients complaining of persistent paresthesias, 20-40 meq/day potassium chloride) | effect on paresthesias and severity (paresthesias [7]; potassium chloride and food (orange juice and bananas) supplementation)
1 | CC1(C)O[C@@H]2[C@@H](CO[C@@]3(COS(N)(=O)=O)OC(C)(C)O[C@@H]23)O1 [topiramate, 2,3:4,5-bis-O-(1-methylethylidene)-β-D-fructopyranose sulfamate] | paresthesia | mild to severe | effectively block seizures | effective as adjunctive therapy or as monotherapy | effectively block seizures |  |  |  |  |  |  |  |  | 
2 | [Cl-].[K+] [potassium chloride] |  |  |  |  |  | paresthesias had abated | paresthesias had abated | paresthesias had abated | paresthesias had abated | paresthesias had abated | paresis (slight paralysis or weakness of a limb) and/or painful paraesthesias in the patient's extremities | stabilization of serum potassium, disappearance of paresthesia and normalization of muscle function and ECG | control of the paresthesias | effective in decreasing paresthesias and its severity
